Patent US9119805B2, “Therapy and prevention of problem drinking” (THE UNIVERSITY OF SYDNEY, priority 2009, dated 2015)
“Also recorded” adds a separate entry of the source.

Test system: P rats
Experiment: Lickometer alcohol preference in alcohol-naïve P rats pre-treated with 10 daily oxytocin injections (Example 2)
Assay type: in vivo, rat
Procedure: P rats (8 female and 6 male P rats) of adult age (i.e., 150 days) were used in this study. Animals were maintained as described in example 1, however they received no alcohol prior to testing.
One-half of the rats (n=4 female and n=3 male) were given 10 injections of 1 mg/kg oxytocin (a single I/P injection per day for a total of 10 days). The other half of the rats received equivalent injections of placebo/vehicle lacking oxytocin. Two weeks later, the alcohol preferences of both sets of alcohol-naïve animals were tested. The same alcohol and alcohol-free solutions were employed as in example 1, and testing conditions were in the same lickometer apparatus. Testing in the lickometer (1×70 min session per day) continued for a total of 10 days during which time intake of sucrose and Vodka Cruiser were measured.

For `CC[C@H](C)[C@@H]1NC(=O)[C@H](Cc2ccc(O)cc2)NC(=O)[C@@H](N)CSSC[C@@H](C(=O)N2CCC[C@H]2C(=O)N[C@@H](CC(C)C)C(=O)NCC(N)=O)NC(=O)[C@H](CC(N)=O)NC(=O)[C@H](CCC(N)=O)NC1=O` [oxytocin], the “alcohol intake and preference for alcohol” value (alcohol-naïve P rats, both sexes, repeated doses) was “reduced alcohol intake and preference for alcohol; also recorded: reduced significantly”, the “preference for Vodka Cruiser versus 3% sucrose solution” value (male alcohol-naïve P rats, 10 x 1 mg/kg/day, final 4 days of testing) was “significantly reduced preference for Cruiser over sucrose” and the intake of sucrose (male oxytocin-treated rats relative to both female groups) was “higher”. The “intake of Cruiser (alcohol)” value (male oxytocin-treated rats versus the other groups) was “less intake of alcohol; also recorded: lower” and the “reduced acquisition of alcohol preference, comparison between the sexes” value (males compared to females) was “greater in males compared to females”.
